Source: patent US8524861B2, “Treatment of bacterial infections” (priority 2004, dated 2013)
“Also recorded” adds a separate entry of the source.

Assays:
Assay type in all cases: cell-based
[1] = system: Saccharomyces cerevisiae yeast cells (strain GenT01); assay: Gentronix GreenScreen GC yeast genotoxicity assay; conditions: concentrations up to and including 100 μM, FIGS. 6A-6C
Protocol: A liquid handling robot is used to produce a serial dilution series of each test compound in a 96-well, black microplate with an optically clear base. […] In addition, a series of genotoxic and cytotoxic standards and non-toxic controls are run to provide internal quality control. The plates are covered with a breathable membrane and incubated overnight, without shaking, at 25° C.
After incubation, the microplates are uncovered and data collected using a Tecan Ultra 384 microplate reader. This instrument provides measurements of light absorbance and fluorescence in microplates; a standard fluorescein filter set (excitation 485/25 and emission 535/25) is used. Absorbance is read at 620 nm and is proportional to cell proliferation (which is lowered by toxic analytes). Fluorescence is proportional to the activity of the DNA repair system (increased by genotoxic analytes). The yeast cultures used are a genetically modified strain that express a green fluorescent protein whenever the cells carry out DNA damage repair. Fluorescence is normalised to the absorbance signal to correct for variation in cell yield caused by any cytolytic activity of the test compounds against the yeast cells. This produces a “fluorescence per cell” measurement termed “brightness”. In addition to the Gentronix Assay yeast strain (GenT01), a control Saccharomyces cerevisiae strain (GenC01) is also used, which is identical except for its ability to produce green fluorescent protein is disabled. This strain is used to provide a control to allow correction for substances which may be either autofluorescent themselves or which induce an autofluorescence in the yeast cells. The data collected is simply transferred into a Excel template where result evaluation sheets are automatically produced. The sheets contain the processed results in both a graphical and tabulated format, with automatic assessment of the result, i.e. positive or negative, and calculation of the lowest effective concentration (LEC), for both genotoxicity and cytotoxicity. […]

Streptococcus pneumoniae = system: Streptococcus pneumoniae
Protocol: The peptides were examined for antibacterial efficacy against Staphylococcus aureus. To test the efficacy of peptides, dilutions of test peptides or PBS (for use as a control) were prepared in LB broth, and 100 μl aliquots of these placed in 96-well plates. A vial of planktonic bacterial stock was thawed in a 37° C. incubator and diluted to the level previously determined which would produce log phase growth after overnight incubation (see above). 25 μl of this bacterial dilution was then added to the test wells (some wells containing LB broth without peptide were left without any bacterial inoculation, these being used as a blank). After overnight growth, the concentration of bacteria in individual wells was assessed by measuring absorbance at 620 nm, in a microplate spectrophotometer. The average absorbance of wells for specific concentrations of peptides was calculated, and from this the percentage inhibition (relative to untreated wells) was also calculated and plotted against concentration (along with an estimate of error on that % inhibition). […] The inventor constructed an expanded library of peptides derived from either apolipoprotein B or apolipoprotein E in order to further evaluate polypeptides in accordance with the invention. Further experiments were then conducted to investigate the antibacterial activity of this peptide library against the bacteria P. aeroginosa, S. aureus and S. pneumoniae. The methods used to determine the IC50 values for each peptide were as described in the Example 1.

[2] = system: Staphylococcus aureus, Pseudomonas aeruginosa, and Streptococcus pneumoniae; assay: Antibacterial activity, overall statements over the test bacteria
Excerpt: The inventors conducted exhaustive experiments to assess the antibacterial activity of peptides from apolipoproteins and derivatives thereof. Peptides and derivatives from ApoE and ApoB were a particular focus. […] Example 1 illustrates the efficacy of the polypeptides according to the invention compared to apoE141-149 and apoB3359-3367 (i.e. non-tandem repeats) and other peptides derived from apolipoproteins.
The activity of polypeptides in accordance with the invention can be seen in Tables 5, 6, 7 and 8.
The peptides were examined for antibacterial efficacy against Staphylococcus aureus. To test the efficacy of peptides, dilutions of test peptides or PBS (for use as a control) were prepared in LB broth, and 100 μl aliquots of these placed in 96-well plates. A vial of planktonic bacterial stock was thawed in a 37° C. incubator and diluted to the level previously determined which would produce log phase growth after overnight incubation (see above). 25 μl of this bacterial dilution was then added to the test wells (some wells containing LB broth without peptide were left without any bacterial inoculation, these being used as a blank). After overnight growth, the concentration of bacteria in individual wells was assessed by measuring absorbance at 620 nm, in a microplate spectrophotometer. The average absorbance of wells for specific concentrations of peptides was calculated, and from this the percentage inhibition (relative to untreated wells) was also calculated and plotted against concentration (along with an estimate of error on that % inhibition).
The inventor constructed an expanded library of peptides derived from either apolipoprotein B or apolipoprotein E in order to further evaluate polypeptides in accordance with the invention. Further experiments were then conducted to investigate the antibacterial activity of this peptide library against the bacteria P. aeroginosa, S. aureus and S. pneumoniae. The methods used to determine the IC50 values for each peptide were as described in the Example 1.

Ac-LRKLRKRLLLRKLRKRLL-NH2 [MU_10]
Genotoxic response in test yeast strain (GenT01) [1]: failed to produce any genotoxic response
IC50 (Streptococcus pneumoniae): 45 µM
Antibacterial activity, in words, bacterium not specified [2]: particularly effective; also recorded: much greater than that of MU43
